Test results published in patent US20190119729A1, “METHOD OF DETECTING AND TREATING P. ACNES AND KIT THEREOF” (priority 2016, published 2019).

Tests used:
P. acnes isolates = test: Antimicrobial susceptibility patterns of P. acnes isolates against different antibiotics (Table 1); assay type: cell-based; details: Cutibacterium acnes
Excerpt: Table 1 below depicts the antimicrobial susceptibility patterns of P. acnes isolates against different antibiotics: […]

[1] = tested on: P. acnes clinical isolates (clindamycin resistant); test: Antimicrobial susceptibility of clindamycin resistant P. acnes clinical isolates against various antibiotics (Table 2); assay type: cell-based; details: for MIC: Cutibacterium acnes; for susceptibility of the strains as indicated by MIC values: all the clindamycin, erythromycin resistant strains of Table 2
Excerpt: Various clinical isolates are obtained from patients carrying Clindamycin Resistant P. acnes and their antimicrobial susceptibility to fluoroquinolone antibiotics is studied vis-à-vis susceptibility to Clindamycin and Erythromycin.

P. acnes = details: in those receiving prolonged antibiotic therapy with the drug (Leyden et al 1983); cited from earlier work
[2] = isolate V21A1, phylotype IA1, type IV, 23S rRNA A2059G
[3] = isolate V21A2, phylotype IB, type I, 23S rRNA A2058G
[4] = isolate V21A3, phylotype IB, type I, 23S rRNA A2058G
[5] = isolate V21A4, phylotype IB, type I, 23S rRNA A2058G
[6] = isolate V21A5, phylotype IA1, type IV, 23S rRNA A2059G
[7] = isolate V21A6, phylotype IA1, type IV, 23S rRNA A2059G
[8] = isolate V21A7, phylotype IA1, type IV, 23S rRNA A2059G
[9] = isolate V21A8, phylotype IA1, type IV, 23S rRNA A2059G
[10] = isolate V21A9, phylotype IB, type I, 23S rRNA A2058G
[11] = isolate V21A10, phylotype IB, type I, 23S rRNA A2058G
[12] = isolate V21B2, phylotype IB, type I, 23S rRNA A2058G
[13] = isolate V21B4, phylotype IB, type I, 23S rRNA A2058G
[14] = isolate V21B6, phylotype IB, type I, 23S rRNA A2058G
[15] = isolate V21B7, phylotype IB, type I, 23S rRNA A2058G
[16] = isolate V21B8, phylotype IB, type I, 23S rRNA A2058G

CCC[C@@H]1C[C@@H](C(=O)N[C@@H]([C@H]2O[C@H](SC)[C@H](O)[C@@H](O)[C@H]2O)[C@H](C)Cl)N(C)C1 [Clindamycin, clindamycin]
64 µg/mL: MIC ([1]; P. acnes strain V21B-1) | MIC ([1]; P. acnes strain V21B-3)
16 to 32 µg/mL: MIC (P. acnes isolates; [10]) | MIC ([1]; P. acnes strain V21A-9)
1 to 2 µg/mL: MIC (P. acnes isolates; [7]) | MIC (P. acnes isolates; [9]) | MIC ([1]; P. acnes strain V21A-6) | MIC ([1]; P. acnes strain V21A-8)
1 µg/mL: MIC (P. acnes isolates; [6]) | MIC ([1]; P. acnes strain V21A-5)
0.5 to 2 µg/mL: MIC (P. acnes isolates; [8]) | MIC ([1]; P. acnes strain V21A-7)
32 to 64 µg/mL: MIC (P. acnes isolates; [13]) | MIC ([1]; P. acnes strain V21B-4)
1 to 4 µg/mL: MIC ([1]; P. acnes strain V21B-5)
16 to 64 µg/mL: MIC (P. acnes isolates; [5]) | MIC (P. acnes isolates; [11]) | MIC (P. acnes isolates; [12]) | MIC (P. acnes isolates; [14]) | MIC (P. acnes isolates; [15]) | MIC (P. acnes isolates; [16]) | MIC ([1]; P. acnes strain V21B-2) | MIC ([1]; P. acnes strain V21B-6) | MIC ([1]; P. acnes strain V21B-7) | MIC ([1]; P. acnes strain V21B-8)
8 to 32 µg/mL: MIC (P. acnes isolates; [4]) | MIC ([1]; P. acnes strain V21A-3)
1 to 8 µg/mL: MIC (P. acnes isolates; [2]) | MIC ([1]; P. acnes strain V21A-1)
8 to 64 µg/mL: MIC (P. acnes isolates; [3]) | MIC ([1]; P. acnes strain V21A-2)

CC1CCc2c(N3CCC(O)CC3)c(F)cc3c(=O)c(C(=O)O)cn1c23 (centres unmarked) [Nadifloxacin, nadifloxacin]
< 0.13 µg/mL: MIC ([1]; P. acnes strain V21A-1) | MIC ([1]; P. acnes strain V21A-5) | MIC ([1]; P. acnes strain V21A-8)
0.3 µg/mL: MIC ([1]; P. acnes strain V21A-2) | MIC ([1]; P. acnes strain V21A-4) | MIC ([1]; P. acnes strain V21A-6) | MIC ([1]; P. acnes strain V21A-9) | MIC ([1]; P. acnes strain V21A-10)
0.5 µg/mL: MIC ([1]; P. acnes strain V21B-1) | MIC ([1]; P. acnes strain V21B-2) | MIC ([1]; P. acnes strain V21B-3) | MIC ([1]; P. acnes strain V21B-4) | MIC ([1]; P. acnes strain V21B-5) | MIC ([1]; P. acnes strain V21B-6) | MIC ([1]; P. acnes strain V21B-7) | MIC ([1]; P. acnes strain V21B-8)
susceptible: susceptibility of the strains as indicated by MIC values [1]

N[C@@H]1CCCCN(c2c(F)cc3c(=O)c(C(=O)O)cn(C4CC4)c3c2Cl)C1 [Besifloxacin, besifloxacin]
0.25 µg/mL: MIC ([1]; P. acnes strain V21B-2) | MIC ([1]; P. acnes strain V21B-3) | MIC ([1]; P. acnes strain V21B-4) | MIC ([1]; P. acnes strain V21B-6) | MIC ([1]; P. acnes strain V21B-7) | MIC ([1]; P. acnes strain V21B-8)
0.13 µg/mL: MIC ([1]; P. acnes strain V21A-7)
0.5 µg/mL: MIC ([1]; P. acnes strain V21B-1) | MIC ([1]; P. acnes strain V21B-5)
susceptible: susceptibility of the strains as indicated by MIC values [1]

C[C@H]1COc2c(N3CCN(C)CC3)c(F)cc3c(=O)c(C(=O)O)cn1c23 [Levofloxacin, levofloxacin]
0.3 µg/mL: MIC ([1]; P. acnes strain V21B-2) | MIC ([1]; P. acnes strain V21B-7)
0.5 µg/mL: MIC ([1]; P. acnes strain V21B-1) | MIC ([1]; P. acnes strain V21B-3) | MIC ([1]; P. acnes strain V21B-4) | MIC ([1]; P. acnes strain V21B-5) | MIC ([1]; P. acnes strain V21B-6) | MIC ([1]; P. acnes strain V21B-8)
< 0.13 µg/mL: MIC ([1]; P. acnes strain V21A-1) | MIC ([1]; P. acnes strain V21A-5) | MIC ([1]; P. acnes strain V21A-8)

CC[C@H]1OC(=O)[C@H](C)[C@@H](O[C@H]2C[C@@](C)(OC)[C@@H](O)[C@H](C)O2)[C@H](C)[C@@H](O[C@@H]2O[C@H](C)C[C@H](N(C)C)[C@H]2O)[C@](C)(O)C[C@@H](C)C(=O)[C@H](C)[C@@H](O)[C@]1(C)O [Erythromycin, erythromycin]
100 to 200 µg/mL: MIC (P. acnes isolates; [4]) | MIC (P. acnes isolates; [5]) | MIC (P. acnes isolates; [6]) | MIC (P. acnes isolates; [7]) | MIC (P. acnes isolates; [8]) | MIC (P. acnes isolates; [9]) | MIC (P. acnes isolates; [10]) | MIC (P. acnes isolates; [11]) | MIC ([1]; P. acnes strain V21A-3) | MIC ([1]; P. acnes strain V21A-4) | MIC ([1]; P. acnes strain V21A-5) | MIC ([1]; P. acnes strain V21A-6) | MIC ([1]; P. acnes strain V21A-7) | MIC ([1]; P. acnes strain V21A-8) | MIC ([1]; P. acnes strain V21A-9) | MIC ([1]; P. acnes strain V21A-10)
50 to 200 µg/mL: MIC (P. acnes isolates; [2]) | MIC (P. acnes isolates; [3]) | MIC ([1]; P. acnes strain V21A-1) | MIC ([1]; P. acnes strain V21A-2)
200 µg/mL: MIC ([1]; P. acnes strain V21B-4)
100 fold: increase of average MIC (P. acnes)
> 200 µg/mL: MIC (P. acnes isolates; [12]) | MIC (P. acnes isolates; isolate V21B3, phylotype IB, type I, 23S rRNA A2058G) | MIC (P. acnes isolates; [13]) | MIC (P. acnes isolates; [14]) | MIC (P. acnes isolates; [15]) | MIC (P. acnes isolates; [16]) | MIC ([1]; P. acnes strain V21B-1) | MIC ([1]; P. acnes strain V21B-2) | MIC ([1]; P. acnes strain V21B-3) | MIC ([1]; P. acnes strain V21B-5) | MIC ([1]; P. acnes strain V21B-6) | MIC ([1]; P. acnes strain V21B-7) | MIC ([1]; P. acnes strain V21B-8)
